Consider 1 molecule from US9067894B1, “Compound, composition, and method of activating GIRK potassium channel and use of same for treating conditions of interest” (Vanderbilt University, priority 2013, dated 2015).

Values after ≈ are worked out from the molar mass of the structure shown. Where two headings read alike, the source gives them in different places.

By inhibition is commonly meant the change of the read-out against control, counted positive when it falls. In general, % Inhibition refers to the change of the read-out against control, counted positive when it falls. Low values mean little suppression, high ones strong suppression. Broadly, the solubility is the dissolved amount per volume that the medium holds. The term EC50 denotes the concentration that produces a half-maximal response.

The target of data set [1] is T1, Muscarinic M3 (Homo sapiens, UniProt P20309).
T1 construct: Ricerca (contract laboratory that ran the panel)
T1 sequence (P20309 whole entry): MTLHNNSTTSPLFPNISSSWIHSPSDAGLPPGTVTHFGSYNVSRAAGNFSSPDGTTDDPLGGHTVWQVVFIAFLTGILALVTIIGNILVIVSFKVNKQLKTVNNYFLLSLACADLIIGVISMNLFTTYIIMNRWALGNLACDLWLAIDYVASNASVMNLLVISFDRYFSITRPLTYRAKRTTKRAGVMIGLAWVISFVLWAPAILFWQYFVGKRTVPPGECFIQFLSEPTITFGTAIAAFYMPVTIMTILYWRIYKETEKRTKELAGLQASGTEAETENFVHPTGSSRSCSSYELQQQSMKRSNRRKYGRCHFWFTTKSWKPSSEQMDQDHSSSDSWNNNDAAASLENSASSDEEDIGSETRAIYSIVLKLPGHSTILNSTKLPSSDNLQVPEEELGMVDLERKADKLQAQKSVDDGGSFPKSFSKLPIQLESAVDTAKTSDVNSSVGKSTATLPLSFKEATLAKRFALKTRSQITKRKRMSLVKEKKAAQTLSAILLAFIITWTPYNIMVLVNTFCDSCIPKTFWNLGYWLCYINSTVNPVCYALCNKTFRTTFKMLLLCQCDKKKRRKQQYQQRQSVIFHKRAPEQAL
Description: Radioligand displacement (Ricerca). The format is binding. (In general: In a radioligand displacement assay an active substance lowers the binding of a labelled ligand.)

For data set [2], the system named is GABAA (flunitrazepam). The data set can be described thus: Radioligand displacement (Ricerca). As to conditions: 10 μM. The format is binding, rat.
Data set [3] in a line: Solubility. Format: physicochemical.
Data set [4] in a line: Pentylenetetrazol (PTZ)-induced seizure model. As to conditions: mice, i.p.; VU0456810 60 mg/kg, sodium valproate 150 mg/kg; PTZ 40 mg/kg; 20 minute timeframe. The format is in vivo, mouse. The procedure:
After thirty minutes, PTZ was administered intraperitoneally (i.p., 40 mg/kg). Immediately following administration of PTZ, the amount of time elapsed before the first occurrence of tremors, tonic-clonic seizures, convulsion, and death was recorded. All mice were subject to a 20-minute post-[…] cutoff.
In all cases, experiments were conducted in a blind manner with respect to the experimenters. Data were evaluated in Excel using one-tailed, unpaired Student's t-test, assuming populations with unequal variance.

The target in data set [5] is T2, Dopamine D4.2 (Homo sapiens, UniProt P21917, DEL265-296).
T2 construct: Ricerca
T2 sequence (P21917 with tags, fused parts or gaps DEL265-296): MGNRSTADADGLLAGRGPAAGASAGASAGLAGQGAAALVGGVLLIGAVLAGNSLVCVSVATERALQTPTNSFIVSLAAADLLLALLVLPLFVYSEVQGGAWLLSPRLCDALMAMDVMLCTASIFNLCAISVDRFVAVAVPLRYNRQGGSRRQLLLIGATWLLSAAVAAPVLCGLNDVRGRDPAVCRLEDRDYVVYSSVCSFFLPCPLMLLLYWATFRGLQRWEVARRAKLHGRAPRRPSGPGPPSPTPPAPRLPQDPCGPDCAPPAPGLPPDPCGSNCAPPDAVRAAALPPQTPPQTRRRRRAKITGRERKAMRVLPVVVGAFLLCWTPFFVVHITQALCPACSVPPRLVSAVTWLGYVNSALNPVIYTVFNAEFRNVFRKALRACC
Description: Radioligand displacement (Ricerca). Format: binding.

In data set [6] the target is T3, GIRK1/3 (Homo sapiens, UniProt P48549+Q92806).
T3 construct: expressed in transfected cells; host or cells: HEK-293
T3 sequence (P48549 whole entry): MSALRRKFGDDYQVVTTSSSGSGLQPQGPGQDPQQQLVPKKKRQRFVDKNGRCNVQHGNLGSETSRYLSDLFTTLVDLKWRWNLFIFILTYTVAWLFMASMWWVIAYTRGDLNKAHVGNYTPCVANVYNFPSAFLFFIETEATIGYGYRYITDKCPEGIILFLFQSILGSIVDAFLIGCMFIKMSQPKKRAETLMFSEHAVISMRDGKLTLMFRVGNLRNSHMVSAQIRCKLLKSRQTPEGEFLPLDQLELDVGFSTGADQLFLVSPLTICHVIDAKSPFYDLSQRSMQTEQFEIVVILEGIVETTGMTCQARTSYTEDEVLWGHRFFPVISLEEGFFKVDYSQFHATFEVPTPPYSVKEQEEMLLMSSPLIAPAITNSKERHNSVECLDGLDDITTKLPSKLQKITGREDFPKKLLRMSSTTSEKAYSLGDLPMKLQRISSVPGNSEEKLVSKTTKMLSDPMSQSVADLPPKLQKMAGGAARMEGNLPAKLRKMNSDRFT
T3 sequence (Q92806 whole entry): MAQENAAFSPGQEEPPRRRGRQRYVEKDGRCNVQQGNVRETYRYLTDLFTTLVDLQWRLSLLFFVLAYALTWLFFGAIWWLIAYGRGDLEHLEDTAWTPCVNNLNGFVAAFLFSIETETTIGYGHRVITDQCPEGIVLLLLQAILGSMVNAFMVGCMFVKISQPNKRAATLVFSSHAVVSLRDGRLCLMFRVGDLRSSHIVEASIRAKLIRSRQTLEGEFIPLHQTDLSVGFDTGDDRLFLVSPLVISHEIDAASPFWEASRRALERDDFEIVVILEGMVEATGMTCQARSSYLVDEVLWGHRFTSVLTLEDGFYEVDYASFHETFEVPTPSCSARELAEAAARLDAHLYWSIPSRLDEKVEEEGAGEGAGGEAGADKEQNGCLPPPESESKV
The data set can be described thus: Thallium flux assay, HEK-293 cells expressing GIRK1/3. Format: cell-based. As to conditions: cell line GIRK1-3; average ± SEM. An excerpt: Cell Line Construction and Cell Culture. HEK-293 cells co-expressing human GIRK1/2 and rat mGlu8 were generated as previously described (Niswender et al., 2008). A HEK-293 cell line (ATCC, Manassas, Va.) expressing human GIRK1 and human GIRK2 was constructed by transfecting HEK-293 cells with GIRK1 and GIRK2 (Origene, Rockville, Md.) cloned into the pBudCE4.1 vector (Life Technologies, Carlsbad, Calif.) using FuGene 6 (Promega, Madison, Wis.) transfection reagent. Unless otherwise noted, other ion channel-expressing cells were prepared by transfecting HEK-293 cells with individual or combinations of subunits: GIRK1, pCMV6-A-BSD; GIRK2, pCMV6-A-puro; GIRK3, pCMV6-A-hygro; GIRK4, pCMV6-A-AC; Kv7.4, pIRESneo3. The Kir2.1 and hERG-expressing cell lines were made by transfecting T-REx-293 cells (Life Technologies, Carlsbad, Calif.) with Kir2.1 and Kv11.1, respectively, cloned into pcDNA5TO. Monoclonal cell lines were produced by limiting-dilution cloning of antibiotic-resistant cells and functional selection using the thallium flux assay described below. Unless otherwise noted, cells were maintained in Minimal Essential Medium, Alpha Medium (Mediatech, Manassas, Va.) supplemented with 10% fetal bovine serum (Sigma-Aldrich, Saint Louis, Mo.) and GlutaGro (Mediatech, Manassas, Va.), referred to henceforth as cell culture medium. […]

Data set [7] deals with T4, hERG (Kv11.1) (Homo sapiens, UniProt Q12809).
T4 construct: expressed in transfected cells; host or cells: T-REx-293
T4 sequence (Q12809 whole entry): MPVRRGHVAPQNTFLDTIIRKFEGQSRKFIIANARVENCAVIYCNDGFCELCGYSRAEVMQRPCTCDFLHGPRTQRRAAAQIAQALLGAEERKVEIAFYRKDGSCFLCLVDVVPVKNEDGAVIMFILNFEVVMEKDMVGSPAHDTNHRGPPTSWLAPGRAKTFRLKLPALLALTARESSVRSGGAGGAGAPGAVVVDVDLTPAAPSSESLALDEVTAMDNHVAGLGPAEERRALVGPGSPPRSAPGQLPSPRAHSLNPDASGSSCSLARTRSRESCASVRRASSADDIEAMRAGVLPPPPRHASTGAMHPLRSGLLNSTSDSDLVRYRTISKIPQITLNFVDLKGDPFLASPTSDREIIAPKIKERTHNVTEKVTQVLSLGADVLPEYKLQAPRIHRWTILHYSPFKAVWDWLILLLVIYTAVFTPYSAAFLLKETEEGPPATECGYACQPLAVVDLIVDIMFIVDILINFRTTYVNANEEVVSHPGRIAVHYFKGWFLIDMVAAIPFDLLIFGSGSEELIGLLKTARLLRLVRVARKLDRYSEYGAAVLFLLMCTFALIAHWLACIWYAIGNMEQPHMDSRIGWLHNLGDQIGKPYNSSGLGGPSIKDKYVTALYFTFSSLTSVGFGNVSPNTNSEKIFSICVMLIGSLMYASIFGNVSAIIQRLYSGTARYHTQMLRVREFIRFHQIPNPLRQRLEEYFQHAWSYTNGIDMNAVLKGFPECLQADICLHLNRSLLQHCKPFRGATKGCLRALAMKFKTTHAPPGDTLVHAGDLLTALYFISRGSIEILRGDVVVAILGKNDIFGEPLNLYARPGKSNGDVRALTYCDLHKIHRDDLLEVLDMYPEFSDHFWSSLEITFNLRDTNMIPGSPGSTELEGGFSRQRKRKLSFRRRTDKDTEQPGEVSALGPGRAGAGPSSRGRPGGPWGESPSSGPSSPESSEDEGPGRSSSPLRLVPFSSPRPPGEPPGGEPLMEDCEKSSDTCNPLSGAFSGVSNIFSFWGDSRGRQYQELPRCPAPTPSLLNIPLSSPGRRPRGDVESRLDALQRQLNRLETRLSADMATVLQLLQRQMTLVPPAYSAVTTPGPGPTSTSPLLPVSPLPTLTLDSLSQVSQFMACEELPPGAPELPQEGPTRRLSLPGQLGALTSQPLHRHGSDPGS
Description: Thallium flux assay, hERG-expressing cells. Format: cell-based. Particulars: human, T-REx-293 cells expressing hERG (Kv11.1), pH 7.3, at 100 μM; 100% inhibition defined by maximally effective dofetilide; read-out: maximum inhibition of hERG. An excerpt:
(§1) Cell Line Construction and Cell Culture. HEK-293 cells co-expressing human GIRK1/2 and rat mGlu8 were generated as previously described (Niswender et al., 2008). A HEK-293 cell line (ATCC, Manassas, Va.) expressing human GIRK1 and human GIRK2 was constructed by transfecting HEK-293 cells with GIRK1 and GIRK2 (Origene, Rockville, Md.) cloned into the pBudCE4.1 vector (Life Technologies, Carlsbad, Calif.) using FuGene 6 (Promega, Madison, Wis.) transfection reagent. Unless otherwise noted, other ion channel-expressing cells were prepared by transfecting HEK-293 cells with individual or combinations of subunits: GIRK1, pCMV6-A-BSD; GIRK2, pCMV6-A-puro; GIRK3, pCMV6-A-hygro; GIRK4, pCMV6-A-AC; Kv7.4, pIRESneo3. The Kir2.1 and hERG-expressing cell lines were made by transfecting T-REx-293 cells (Life Technologies, Carlsbad, Calif.) with Kir2.1 and Kv11.1, respectively, cloned into pcDNA5TO. Monoclonal cell lines were produced by limiting-dilution cloning of antibiotic-resistant cells and functional selection using the thallium flux assay described below. Unless otherwise noted, cells were maintained in Minimal Essential Medium, Alpha Medium (Mediatech, Manassas, Va.) supplemented with 10% fetal bovine serum (Sigma-Aldrich, Saint Louis, Mo.) and GlutaGro (Mediatech, Manassas, Va.), referred to henceforth as cell culture medium. Cell culture medium was further supplemented with selection antibiotics, as appropriate.
(§2) For thallium flux assays, cells were dislodged from tissue culture flasks using TrypLE Express (Life Technologies, Carlsbad, Calif.), transferred to a 50 mL centrifuge tube, and spun at 500×g for 2 min. The supernatant solution was removed by aspiration and the pellet was resuspended at concentration of ˜1000 cells/μL. Twenty μL/well of the cell suspension was transferred to 384-well, amine-coated assay plates (cat#354719, BD, Franklin Lakes, N.J.) using an electronic multichannel pipette. Plated cells were incubated overnight in a humidified 5% CO2 cell culture incubator at 37° C. […]
(In general: Block of hERG is tested as a sign of cardiac risk.)

The target of data set [8] is T5, hERG potassium channel (Homo sapiens, UniProt Q12809).
T5 construct: expressed in transfected cells; host or cells: T-REx-293
T5 sequence (Q12809 whole entry): as above
Description: Thallium flux assay, hERG-expressing cells. Format: cell-based. As to conditions: hERG inhibition, thallium flux.
Description: as §1, §2

Data set [9] relates to GABAA (muscimol). The data set can be described thus: Radioligand displacement (Ricerca). The format is binding, rat. Particulars: 10 μM.
In data set [10] the target is T6, Dopamine D2s (Homo sapiens, UniProt P14416).
T6 construct: Ricerca
Description: Radioligand displacement (Ricerca). The format is binding.

The target of data set [11] is T7, Serotonin 5-HT3 (Homo sapiens, UniProt P46098).
T7 construct: Ricerca (contract panel)
T7 sequence (P46098 24-478): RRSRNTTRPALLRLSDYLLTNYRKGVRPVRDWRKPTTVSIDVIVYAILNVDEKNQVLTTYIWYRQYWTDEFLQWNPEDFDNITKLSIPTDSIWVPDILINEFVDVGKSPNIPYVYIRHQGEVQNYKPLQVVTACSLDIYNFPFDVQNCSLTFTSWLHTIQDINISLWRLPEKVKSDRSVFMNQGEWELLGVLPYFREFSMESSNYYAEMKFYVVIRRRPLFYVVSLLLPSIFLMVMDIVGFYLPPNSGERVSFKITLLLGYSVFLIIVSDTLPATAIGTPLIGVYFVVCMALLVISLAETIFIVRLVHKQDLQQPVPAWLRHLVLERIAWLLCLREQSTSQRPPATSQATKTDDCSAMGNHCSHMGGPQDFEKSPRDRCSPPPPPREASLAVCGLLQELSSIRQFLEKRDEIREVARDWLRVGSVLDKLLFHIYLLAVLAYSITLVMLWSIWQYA
Description: Radioligand displacement (Ricerca). Format: binding.

The target in data set [12] is T8, Tachykinin NK1 (Homo sapiens, UniProt P25103).
T8 construct: Ricerca (contract panel)
T8 sequence (P25103 whole entry): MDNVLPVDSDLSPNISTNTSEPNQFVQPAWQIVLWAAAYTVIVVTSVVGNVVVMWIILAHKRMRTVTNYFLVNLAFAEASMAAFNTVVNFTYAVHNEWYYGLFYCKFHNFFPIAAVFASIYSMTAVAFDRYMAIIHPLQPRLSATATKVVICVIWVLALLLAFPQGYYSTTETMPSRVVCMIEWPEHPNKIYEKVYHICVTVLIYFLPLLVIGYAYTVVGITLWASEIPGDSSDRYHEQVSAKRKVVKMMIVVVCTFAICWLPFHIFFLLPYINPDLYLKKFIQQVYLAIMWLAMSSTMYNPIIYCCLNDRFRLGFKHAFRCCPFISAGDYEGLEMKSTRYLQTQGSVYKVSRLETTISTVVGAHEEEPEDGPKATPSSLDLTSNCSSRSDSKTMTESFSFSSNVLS
The data set can be described thus: Radioligand displacement (Ricerca). Format: binding.

Data set [13] addresses T9, Muscarinic M1 (Homo sapiens, UniProt P11229).
T9 construct: Ricerca (contract laboratory that ran the panel)
The data set can be described thus: Radioligand displacement (Ricerca). The format is binding.

Data set [14] addresses T10, Adenosine A1 (Homo sapiens, UniProt P30542).
T10 construct: Ricerca (contract assay)
The data set can be described thus: Radioligand displacement (Ricerca). The format is binding.

Data set [15] concerns the target T11, EGF (Homo sapiens, UniProt P00533).
T11 construct: Ricerca
The data set can be described thus: Radioligand displacement (Ricerca). Format: binding.

In the case of `Cc1cc(NC(=O)Nc2ccc(F)c(F)c2)n(-c2ccccc2)n1` [VU0456810, 1-(3,4-difluorophenyl)-3-(3-methyl-1-phenyl-1H-pyrazol-5-yl)urea], the inhibition at 10 µM stood at 13% in [1]; 4% in data set [5]; 16% in data set [10]; 1% in [11]; 3% in [12]; 0% in data set [13]. In addition, the inhibition at 10 µM in data set [14] is 6%; in data set [15], -2%. Further, the “% Inhibition” value in [2] is 24%; in [9], 49%. The same molecule came in with a solubility in data set [3] of 17.5 µM (≈ 5.75 µg/mL). For the same molecule, the “animals experiencing convulsions from PTZ treatment” value in [4] is 5 out of 8 animals did not experience convulsions and significant decrease. In addition, in data set [4], the “animals surviving PTZ treatment” value is 6 out of 8 animals survived and significant increase. For the same molecule, in data set [6], the concentration giving a half-maximal response (EC50) was found to be 0.914 ± 0.264 µM. In addition, in data set [6], the “EC50 Thallium Flux” value is listed as “able to activate”. The inhibition at 20 min, 100 µM in data set [7] is roughly 60%. Further, the IC50 is roughly 10 µM in data set [8] (read-out: IC50) and 10.1 ± 7 µM in [8] (average ± SEM, read-out: Potency).
